The source of these data is patent publication US10752589B2, “Trigonelline based compounds” (SPHAERA PHARMA PVT. LTD., priority 2016, dated 2020).

Values after ≈ are worked out from the molar mass of the structure shown. “Also recorded” adds a separate entry of the source. Read-outs that look alike come from different tables or passages of the source.

Series [1] in a line: Solubility in miliQ water by HPLC (area under the curve). Type of series: physicochemical.
Experimental: 1 mg/ml and 2 mg/ml solution of Mefloquine and Tadlafil respectively and equivalent weight of respective trigonelline modified compound (1011), compound (1005) of the present invention was taken in miliQ water, vortexed, centrifuged for 3 min, filtered and loaded on HPLC column (Zorbax Eclipse C18; Mobile Phase: A: 0.1% TFA, B: ACN; run time 15 min, Waters 2996 HPLC model).
Series [2] is described as follows: Pharmacokinetics in SD rats, IV dosing (Docetaxel and 1008). The class given is in vivo. Conditions: for AUC / Cmax / Tmax / half-life: Sprague-Dawley, rat, plasma, PEG400 and Normal saline; for half-life: read-out: T1/2 elimination (converted). An excerpt: The results were compared with exposure of Docetaxel (10 mpk) using the same dosing vehicle.
Supernatant was kept for analysis.

A short description of series [3]: Solubility of Paclitaxel modified drug in saline solvent systems by HPLC. The settings on record: for solubility: thermodynamic from solid; for Solubility compared with parent drug: aqueous solubility; for Fold increase in solubility: versus Paclitaxel. The procedure:
Solubility was checked in different solvent systems.
Area under the curve for each were determined and based on that fold increase in solubility was determined.

A short description of series [4]: Pharmacokinetics in SD rats, IV dosing (Paclitaxel and 1001).
Experimental: Pharmacokinetics studies were carried out to evaluate the plasma exposure of modified drug of Paclitaxel in SD rats when dosed intravenously (IV). The results were compared with exposure of Paclitaxel using the same dosing vehicle. The dosing vehicle that was used in this study was PEG400 and Normal saline in fixed composition. […] 3 mpk and 1 mpk IV dosing was done for the modified drug and 3 mpk IV for Paclitaxel parent drug. After IV dosing of the modified drug blood was collected by serial bleeding at different time points in heparinized tubes. Blood samples were centrifuged at 10,000 rpm for 5 min at 4° C. to obtain the plasma, which were aspirated into separate labeled tubes and stored at −80° C. Extraction solvent was added to plasma, was vortexed and shaken on shaker for 10 minutes, centrifuged at 10,000 rpm for 10 minutes at 4° C. Supernatant was kept for analysis.
Acetonitrile and plasma calibration curves were generated and percentage of drug recovery from plasma determined Quantitative analysis was done by liquid chromatography tandem mass spectrometer (API3000 LC-MS/MS).
Series [5] in a line: Stability and solubility in dosing vehicle PEG400 and Normal saline. Type of series: physicochemical. The settings on record: PEG400 and Normal saline in fixed composition.
Where [6] appears, read: concentration used for HPLC analysis 1 mg/ml.
Where [7] appears, read: 3 mg/Kg iv, PEG/Normal Saline (3 mpk 1001 = 2.1 mpk Paclitaxel delivered).
Setting [8] is: concentration used for HPLC analysis 2 mg/ml.

Broadly, the solubility is the dissolved amount per volume that the medium holds. Low values mean a poorly soluble substance, high ones a readily soluble substance. Take `OC(c1cc(C(F)(F)F)nc2c(C(F)(F)F)cccc12)C1CCCCN1` (stereo not shown) [Mefloquine, reference compound]: the solubility result in series [1] (setting [6]) is listed as “Poor”.

As a reminder, the AUC is the area under the concentration-time curve, a measure of exposure. A high value points to high exposure. Broadly, the Tmax is the time from dosing to the highest level. Consider `CC(=O)O[C@@]12CO[C@@H]1C[C@H](O)[C@@]1(C)C(=O)[C@H](O)C3=C(C)[C@@H](OC(=O)[C@H](O)[C@@H](NC(=O)OC(C)(C)C)c4ccccc4)C[C@@](O)([C@@H](OC(=O)c4ccccc4)[C@H]21)C3(C)C` [Docetaxel, reference compound], for which, in series [2] (10 mg/kg, 10 mpk IV), the AUC worked out at 0.897 µM·h, the Cmax came to 0.495 µM, the Tmax was 4.8 min and the half-life was 124 min.

Take `C[n+]1cccc(C(=O)N2CCCC[C@@H]2[C@@H](O)c2cc(C(F)(F)F)nc3c(C(F)(F)F)cccc23)c1` [Compound 1011, 3-((R)-2((S)-(2,8-bis(trifluoromethyl)quinolin-4 yl)(hydroxy)methyl)piperidine-1-carbonyl)-1-methylpyridin-1-ium]: the “Aqueous solubility over parent drug” value in series [1] is “significant increase”. Further, the “Fold increase in solubility for equiv. wt of DM using HPLC” value in series [1] (1 mg/ml, versus parent Mefloquine) is 2.4 fold. Also, the solubility result in series [1] (setting [6]) was “Completely”.

In the case of `CC(=O)O[C@H]1C(=O)[C@@]2(C)[C@H]([C@H](OC(=O)c3ccccc3)[C@]3(O)C[C@H](OC(=O)[C@H](O)[C@@H](NC(=O)c4ccccc4)c4ccccc4)C(C)=C1C3(C)C)[C@]1(OC(C)=O)CO[C@@H]1C[C@@H]2O` [Paclitaxel, reference compound], in series [3] (5% DMA in normal saline), the “Solubility in 5% DMA in normal saline” value is recorded as “Not soluble”. For the same compound, the “Solubility in 5% DMSO in Normal saline” value in series [3] (5% DMSO in Normal saline) is “Not soluble”. For the same compound, the “Solubility in 9% NP in Normal Saline” value in series [3] (9% NP in Normal Saline) was “Not soluble”. The same compound came in with a solubility in series [3] (normal saline, saline or isotonic, Solubility in Normal saline) of 0.1 µg/mL (≈ 0.117 µM). For the same compound, in series [4] (setting [7]), the Cmax is recorded as 104 nm.

In the case of `CC(=O)O[C@@]12CO[C@@H]1C[C@H](O)[C@@]1(C)C(=O)[C@H](O)C3=C(C)[C@@H](OC(=O)[C@H](OC(=O)c4ccc[n+](C)c4)[C@@H](NC(=O)OC(C)(C)C)c4ccccc4)C[C@@](O)([C@@H](OC(=O)c4ccccc4)[C@H]21)C3(C)C.[I-]` [Compound 1008, 3-((((2R,3S)-1-(((2aR,4S,4aS,6R,9S,11S,12S,12aR,12bS)-12b-acetoxy-12-(benzoyloxy)-4,6,11-trihydroxy-4a,8,13,13-tetramethyl-5-oxo-2a,3,4,4a,5,6,9,10,11,12,12a,12b-dodecahydro-1H-7,11-methanocyclodeca[3,4]benzo[1,2-b]oxet-9-yl)oxy)-3-((tert-butoxycarbonyl)amino)-1-oxo-3-phenylpropan-2-yl)oxy)carbonyl)-1-methylpyridin-1-ium iodide], the “Solubility compared with parent drug” value in series [3] is “better aqueous solubility”. For the same compound, the “Exposure compared to the parent drug” value in series [2] (IV, 1008 3 mpk versus Docetaxel 10 mpk) is “significantly higher exposure”. In addition, the “Pharmacokinetics compared to the original compound” value in series [2] (IV, versus Docetaxel) was “enhanced pharmacokinetics”. For the same compound, in series [2] (3 mg/kg, 3 mpk IV), the AUC stood at 1.04 µM·h, the Cmax was 6.92 µM, the time of peak concentration (Tmax) amounted to 4.8 min and the half-life was 107 min. The “Stability and solubility in the dosing vehicle” value in series [5] was “stable and soluble”.

As for `CN1CC(=O)N2[C@H](c3ccc4c(c3)OCO4)c3c(c4ccccc4n3C(=O)c3ccc[n+](C)c3)C[C@@H]2C1=O` [Compound 1005, 3-((6R,12aR)-6-(benzo[d][1,3]dioxol-5-yl)-2-methyl-1,4-dioxo-1,2,3,4,6,7,12,12a-octahydropyrazino[1′,2′:1,6]pyrido[3,4-b]indole-7-carbonyl)-1-methylpyridin-1-ium iodide], the “Aqueous solubility over parent drug” value in series [1] is on record as “significant increase”. The “Fold increase in solubility for equiv. wt of DM using HPLC” value in series [1] (2 mg/ml, versus parent Tadalafil) came to 80 fold. Besides, in series [1] (setting [8]), the solubility entry is recorded as “Completely”.

In the case of `CC(=O)O[C@H]1C(=O)C2(C)C([C@H](OC(=O)c3ccccc3)[C@]3(O)C[C@H](OC(=O)[C@H](OC(=O)c4ccc[n+](C)c4)[C@H](NC(=O)c4ccccc4)c4ccccc4)C(C)=C1C3(C)C)[C@]1(OC(C)=O)CO[C@@H]1C[C@@H]2O.[I-]` (stereo partly drawn) [Compound 1001, 3-((((1R,2R)-1-benzamido-3-(((2aR,4S,6R,9S,11S,12S,12bS)-6,12b-diacetoxy-12-(benzoyloxy)-4,11-dihydroxy-4a,8,13,13-tetramethyl-5-oxo-2a,3,4,4a,5,6,9,10,11,12,12a,12b-dodecahydro-1H-7,11-methanocyclodeca[3,4]benzo[1,2-b]oxet-9-yl)oxy)-3-oxo-1-phenylpropan-2-yl)oxy)carbonyl)-1-methylpyridin-1-ium iodide], the “Fold increase in solubility” value in series [3] (Normal Saline with 5% Dimethylacetamide) is reported as > 10,000 ×; in series [3] (Normal Saline with 5% Dimethylsulfoxide) it was > 12,000 ×; in series [3] (Normal Saline with 9% N-Methylpyrrolidone), > 15,000 ×; in series [3] (Normal Saline), more than 5000 ×. In series [3], the “Solubility compared with parent drug” value is recorded as “increased solubility; also recorded: better aqueous solubility”. The solubility in series [3] (aqueous with cosolvent or surfactant or cyclodextrin, Solubility in 5% DMA in normal saline, 5% DMA in normal saline) is approximately 1000 µg/mL; in series [3] (aqueous with cosolvent or surfactant or cyclodextrin, Solubility in 5% DMSO in Normal saline, 5% DMSO in Normal saline), more than 1200 µg/mL; in series [3] (aqueous with cosolvent or surfactant or cyclodextrin, Solubility in 9% NP in Normal Saline, 9% NP in Normal Saline), more than 1500 µg/mL; in series [3] (saline or isotonic, Solubility in Normal saline, Normal saline) it was more than 500 µg/mL. In addition, the “Stability in the selected solvents” value in series [3] (selected solvent systems in normal saline) is listed as “stable”. Further, the Cmax in series [4] (1 mg/Kg iv, PEG/Normal Saline (1 mpk 1001 = 0.71 mpk Paclitaxel delivered)) came to 2384 nm; in series [4] (setting [7]), 8620 nm. Further, in series [4] (iv, versus Paclitaxel), the “Fold increase in the AUC” value is reported as “more than 10 fold”. For the same compound, the “Fold increase in the Cmax” value in series [4] (iv, versus Paclitaxel) is recorded as “more than 80 folds”. The “Stability and solubility in the dosing vehicle” value in series [5] is “stable and soluble”.

As for `CN1CC(=O)N2[C@H](c3ccc4c(c3)OCO4)c3[nH]c4ccccc4c3C[C@@H]2C1=O` [Tadalafil, reference compound], the solubility result in series [1] (setting [8]) was “Very poor”.
